Values of other authors in patent US20220372506A1, “CYP81E GENES […] TOLERANCE” (Colorado State University Research Foundation, priority 2020, published 2022).
“Also recorded” adds a separate entry of the source.

Key:
[1] = system: A. tuberculatus CHR population; details: CHR population compared to WUS; for level of resistance (dose response): Evans et al. 2019
[2] = system: A. tuberculatus NEB population
[3] = system: A. tuberculatus NEB population; details: malathion pre-treatment before 2,4-D, Figueiredo et al. 2018

Compound: O=C(O)COc1ccc(Cl)cc1Cl [2,4-D, 2,4-dichlorophenoxyacetic acid]
- level of resistance (dose response) [1]: 9 fold
- level of 2,4-D resistance ([2]; NEB population compared to the Nebraska 2,4-D sensitive population, Bernards et al. 2012): 10 fold

Compound: CCOC(=O)CC(SP(=S)(OC)OC)C(=O)OCC (stereo not drawn) [malathion]
- effect of pre-treatment on 2,4-D resistance phenotype [3]: reverted to sensitivity; also recorded: reversed the resistance phenotype

Compound: CS(=O)(=O)c1ccc(C(=O)C2C(=O)CCCC2=O)c([N+](=O)[O-])c1 [mesotrione]
- level of resistance (dose response) [1]: ~15 fold

Compound: CS(=O)(=O)c1ccc(C(=O)C2C(=O)CCCC2=O)c(Cl)c1COCC(F)(F)F [tembotrione]
- resistance to tembotrione ([1]; Murphy and Tranel, 2019): 43 fold
- resistance to tembotrione ([2]; NEB population compared to WUS, Murphy and Tranel, 2019): 15 fold
